This series is described as follows: Compound was evaluated for pKa value by potentiometric titration. Format: physicochemical.
`CC(C)COCC(O)CNC(C)(C)C` (stereo unspecified) gave a pKa of 9.73.
`C/C(=N/OCC(O)CNC(C)(C)C)C(C)C` (stereo unspecified) returned a pKa of 9.27.
`CC(C)(C)COCC(O)CNC(C)(C)C` (stereo unspecified) returned a pKa of 9.68.
In turn, `CC(C)(C)NCC(O)CON=C(C1CC1)C1CC1` (stereo unspecified) came in with a pKa of 9.64.
The compound `CC(NOCC(O)CNC(C)(C)C)C1CC1` (stereo unspecified) yielded a pKa of 9.1.
For `CC(C)=NOCC(O)CNC(C)(C)C` (stereo unspecified) the value was 9.42; for `C/C(CC1CC1)=N/OCC(O)CNC(C)(C)C` (stereo unspecified), 9.57.
For the compound `CC1C/C(=N/OCC(O)CNC(C)(C)C)CC(C)(C)C1` (stereo unspecified), the pKa turned out to be 9.41.
In turn, `CC1CC(OCC(O)CNC(C)(C)C)CC(C)(C)C1` (stereo unspecified) displayed a pKa of 9.94.
In the case of `CC(C)(C)NCC(O)COC(C1CC1)C1CC1` (stereo unspecified), the pKa is 9.63.
As for `CC(OCC(O)CNC(C)(C)C)C1CC1` (stereo unspecified), the figure is 9.76; as for `C/C(=N/OCC(O)CNC(C)(C)C)C1CC1` (stereo unspecified), 9.45.
As for `CC(C)(C)NCC(O)COCC1CC1` (stereo unspecified), the figure is 9.73.
For `CC(C)OCC(O)CNC(C)(C)C` (stereo unspecified) the value was 9.9.
`CC(C)(C)NCC(O)CO/N=C\C1CC1` (stereo unspecified) registered a pKa of 9.64.
In turn, `C=CC(C)(C)OCC(O)CNC(C)(C)C` (stereo unspecified) gave a pKa of 9.67.

What is called pKa is the negative logarithm of the acid dissociation constant. Low readings indicate a stronger acid or weaker base, high ones a weaker acid or stronger base.

The values are drawn from ChEMBL document CHEMBL1122733, “Synthesis and beta-adrenergic blocking activity of new aliphatic and alicyclic oxime ethers” (J Med Chem, 1984).
